The values that follow are results of earlier work, collected in patent publication US20180133147A1, “Drug Delivery Systems” (Novartis AG, priority 2013, published 2018).

Where two headings read alike, the source gives them in different places.

Consider vapreotide pamoate, for which, where the note is “PBS pH 7.4”, the “solubility in phosphate buffer saline” value is 20 to 40 µg/mL.
For octreotide pamoate, where the note is “25° C.”, the solubility in water is 200 µg/mL.
Take pasireotide pamoate: the solubility in water was 20 µg/mL.
